pEC50, pIC50: −log10 of the molar value.
Experiments:
[1] = biological target: T1, Growth hormone secretagogue receptor type 1 (Homo sapiens, UniProt Q92847); assay: Agonist activity at eYFP/RLuc-tagged GHSR1a (unknown origin) transfected in HEK293 cells assessed as beta-arrestin 2 recruitment incubated for 20 mins by BRET assay; format: functional, cell-based
[2] = biological target: T1, Growth hormone secretagogue receptor type 1; assay: Displacement of […] [125I]-ghrelin from eYFP-labelled GHSR1a (unknown origin) transfected in HEK293 cells incubated for 20 mins by radioligand binding assay; format: cell-based
[3] = biological target: T1, Growth hormone secretagogue receptor type 1; assay: Agonist activity at eYFP/RLuc-tagged GHSR1a (unknown origin) transfected in HEK293 cells assessed as beta-arrestin 1 recruitment incubated for 20 mins by BRET assay; format: functional, cell-based
[4] = biological target: T1, Growth hormone secretagogue receptor type 1; assay: Displacement of [125I]ghrelin from GHSR1a in HEK293 cells by competitive binding assay; format: cell-based

T1 sequence (Q92847 whole entry): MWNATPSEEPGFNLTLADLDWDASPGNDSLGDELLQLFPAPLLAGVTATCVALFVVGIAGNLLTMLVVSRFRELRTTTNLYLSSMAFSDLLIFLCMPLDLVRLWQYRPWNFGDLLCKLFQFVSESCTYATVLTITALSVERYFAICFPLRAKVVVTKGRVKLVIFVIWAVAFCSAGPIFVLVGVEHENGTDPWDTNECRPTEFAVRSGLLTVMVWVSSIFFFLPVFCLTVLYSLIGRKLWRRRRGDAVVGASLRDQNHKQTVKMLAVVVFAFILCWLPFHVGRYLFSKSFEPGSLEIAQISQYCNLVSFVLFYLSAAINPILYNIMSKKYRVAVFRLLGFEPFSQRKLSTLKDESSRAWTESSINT

Row | pEC50 [1] | pIC50 [2] | pEC50 [3] | pIC50 [4] | Compound
1 | 7.15 | 8.31 | 7.04 |  | CCCCCCCC(=O)OC[C@H](NC(=O)[C@H](CO)NCC(N)=O)C(=O)N[C@@H](Cc1ccccc1)C(=O)N[C@@H](CC(C)C)C(=O)N[C@@H](CO)C(=O)N1CCC[C@H]1C(=O)N[C@@H](CCC(=O)O)C(=O)N[C@@H](Cc1c[nH]cn1)C(=O)N[C@@H](CCC(N)=O)C(=O)N[C@@H](CCCNC(=N)N)C(=O)N[C@H]1CSCc2ccc(cc2)CSC[C@@H](C(=O)N[C@@H](CCC(=O)O)C(=O)N[C@@H](CO)C(=O)N[C@@H](CCCCN)C(=O)N[C@@H](CCCCN)C(=O)O)NC(=O)[C@H](CCCNC(=N)N)NC(=O)[C@H](CCC(N)=O)NC(=O)[C@H](CCC(N)=O)NC1=O
2 | 6.94 | 8.84 | 7.11 |  | CCCCCCCC(=O)OC[C@H](NC(=O)[C@H](CO)NCC(N)=O)C(=O)N[C@@H](Cc1ccccc1)C(=O)N[C@@H](CC(C)C)C(=O)N[C@@H](CO)C(=O)N1CCC[C@H]1C(=O)N[C@@H](CCC(=O)O)C(=O)N[C@@H](Cc1c[nH]cn1)C(=O)N[C@@H](CCC(N)=O)C(=O)N[C@@H](CCCNC(=N)N)C(=O)N[C@@]1(C)CCC/C=C\CCC[C@@](C)(C(=O)N[C@@H](CCC(=O)O)C(=O)N[C@@H](CO)C(=O)N[C@@H](CCCCN)C(=O)N[C@@H](CCCCN)C(=O)O)NC(=O)[C@H](CCCNC(=N)N)NC(=O)[C@H](CCC(N)=O)NC(=O)[C@H](CCC(N)=O)NC1=O
3 |  |  |  | 8.10 | CCCCCCCC(=O)OC[C@H](NC(=O)[C@H](CO)NCC(N)=O)C(=O)N[C@@H](Cc1ccccc1)C(=O)N[C@@H](CC(C)C)C(=O)N[C@@H](CO)C(=O)N1CCC[C@H]1C(=O)N[C@@H](CCC(=O)O)C(=O)N[C@@H](Cc1c[nH]cn1)C(=O)N[C@@H](CCC(N)=O)C(=O)N[C@@H](CCCNC(=N)N)C(=O)N[C@H](C(=O)N[C@@H](CCC(N)=O)C(=O)N[C@@H](CCC(N)=O)C(=O)N[C@@H](CCCNC(=N)N)C(=O)N[C@@H](CCCCN)C(=O)N[C@@H](CCC(=O)O)C(=O)N[C@@H](CO)C(=O)N[C@@H](CCCCN)C(=O)N[C@@H](CCCCN)C(N)=O)C(C)C

Source: ChEMBL document CHEMBL5357048, “A survey of stapling methods to increase affinity, activity, and stability of ghrelin analogues” (RSC Med Chem, 2024)
